Assay results reported in paper PMC3726394, “Selecting β-glucosidases to support cellulases in cellulose saccharification” (Biotechnology for Biofuels, 2013).

Assays:
Assay type in all cases: biochemical, Acremonium thermophilum
[1] = system: T1, AtBG3; test: glucose release, hexokinase/G6PDH assay; fit with transglycosylation; details: 25 °C, pH 5.0, 50 mM sodium acetate; hydrolysis constant, substrate inhibition by transglycosylation; read-out: KM(h)(mM)^a / AtBG3
T1 construct: secreted enzyme, heterologously expressed in Trichoderma reesei lacking four major cellulases; gel filtration; 101 kDa

[2] = biological target: T1, AtBG3; test: inhibition of MUG hydrolysis, fluorescence; details: 25 °C, pH 5.0, 2.5 μM MUG; IC50 at [S] << KM taken as Ki; competitive inhibition assumed; read-out: AtBG3^b
Source text: inhibition of MUG hydrolysis, fluorescence on AtBG3

[3] = system: T1, AtBG3; test: pNP release, absorbance […] nm; fit with transglycosylation; details: 25 °C, pH 5.0, 50 mM sodium acetate; hydrolysis constant, substrate inhibition by transglycosylation; read-out: KM(h)

OC[C@H]1O[C@@H](O[C@H]2[C@H](O)[C@@H](O)C(O)O[C@@H]2CO)[C@H](O)[C@@H](O)[C@@H]1O (stereo partly drawn) [cellobiose]
Km [1]: 0.29 ± 0.07 mM

OC[C@H]1OC(O)[C@H](O)[C@@H](O)[C@@H]1O (stereo partly drawn) [glucose]
Ki [2]: 220 µM

O=[N+]([O-])c1ccc(O[C@@H]2O[C@H](CO)[C@@H](O)[C@H](O)[C@H]2O)cc1 [para-nitrophenyl-β-glucoside]
Km [3]: 95 ± 3 µM
